# B1: plasmin: Plasmin causes the breakdown of fibrinogen (protein, UniProt P00747 20-580; P00747 581-810, looked up)
# Plasmin heavy chain A: EPLDDYVNTQGASLFSVTKKQLGAGSIEECAAKCEEDEEFTCRAFQYHSKEQQCVIMAENRKSSIIIRMRDVVLFEKKVYLSECKTGNGKNYRGTMSKTKNGITCQKWSSTSPHRPRFSPATHPSEGLEENYCRNPDNDPQGPWCYTTDPEKRYDYCDILECEEECMHCSGENYDGKISKTMSGLECQAWDSQSPHAHGYIPSKFPNKNLKKNYCRNPDRELRPWCFTTDPNKRWELCDIPRCTTPPPSSGPTYQCLKGTGENYRGNVAVTVSGHTCQHWSAQTPHTHNRTPENFPCKNLDENYCRNPDGKRAPWCHTTNSQVRWEYCKIPSCDSSPVSTEQLAPTAPPELTPVVQDCYHGDGQSYRGTSSTTTTGKKCQSWSSMTPHRHQKTPENYPNAGLTMNYCRNPDADKGPWCFTTDPSVRWEYCNLKKCSGTEASVVAPPPVVLLPDVETPSEEDCMFGNGKGYRGKRATTVTGTPCQDWAAQEPHRHSIFTPETNPRAGLEKNYCRNPDGDVGGPWCYTTNPRKLYDYCDVPQCAAPSFDCGKPQVEPKKCPGR
# Plasmin light chain B: VVGGCVAHPHSWPWQVSLRTRFGMHFCGGTLISPEWVLTAAHCLEKSPRPSSYKVILGAHQEVNLEPHVQEIEVSRLFLEPTRKDIALLKLSSPAVITDKVIPACLPSPNYVVADRTECFITGWGETQGTFGAGLLKEAQLPVIENKVCNRYEFLNGRVQSTELCAGHLAGGTDSCQGDSGGPLVCFEKDKYILQGVTSWGLGCARPNKPGVYVRVSRFVTWIEGVMRNN
# modifications: Plasmin
# notes: Plasmin causes the breakdown of fibrinogen
# What was measured:
# washed platelets (WPS) = assay: Mixed aggregation of washed FPH with washed platelets (WPS) with and without EDTA and agonists; type: cell-based, human; conditions: 5 mM EDTA
# Protocol: This was repeated 5 times. […] In one of the duplicates, EDTA was added to achieve a 5 mM concentration. […] These samples were prepared immediately prior to running on the PAP-8E Platelet Aggregometer. The different agonist were prediluted in HMTA according: arachidonic acid (Helena Biosciences, Helena-biosciences.com) 1:10 in HMTA, TRAP-6 (Tocris, tocris.com) by adding 7.5 μl to 292.5 μl HMTA.
# The PAP-8E Platelet Aggregometer was turned on and samples were incubated with stirring for 10 minutes at 37° C. for all mixed aggregation experiments. The samples with HMTA was used as a control for agonists used in aggregation. The following agonists were used to induce aggregation in samples: 10 μg/ml collagen (Helena Biosciences, Helena-biosciences.com), 10U/ml thrombin (Helena Biosciences, Helena-biosciences.com), 10 μg/ml arachidonic acid, and 10 μM TRAP-6. 225 μl of the samples were added to cuvettes by reverse pipetting and inserted in the channels. Cuvettes were transferred from the warming wells to the testing wells. The test was started and 25 μl of each agonist was added to the appropriate cuvettes when the timer for the channel reached 8:00 minutes. HMTA was added in place of the agonist to the first channel in each module. Once measurements were completed for each agonist, the samples were transferred to a microcentrifuge tube and AcT count was taken. […]
# [1] = tested on: fibrinogen, GPIIIa (CD61), complexed GPIIb/IIIa (CD41); conditions: 5 mM EDTA
# Protocol: EDTA (Sigma Aldrich, sigmaaldrich.com) was added to one of the duplicates to achieve a 5 mM concentration. […] Stain volumes were as follows: Unstained: 10 μl of sample and 20 μl HMTA, 9F9: 10 μl of sample, 5 μl antibody, and 15 μl HMTA, CD41: 5 μl of sample and 12 μl antibody, and CD61: 10 μl of sample, 10 μl antibody, and 10 μl HMTA. Stained samples were incubated for 20 minutes for 9F9, CD61, and vWF and 5 minutes for CD41. 470 μl of the samples were added to 9F9 and CD61 stains and 233 μl of the samples were added to CD41 stains. 100 μl of each sample was transferred to wells in a 96-well plate. All samples were measured using the Quanteon flow cytometer.
# FXa = target: T1, FXa (Homo sapiens, UniProt P00742); assay: FPH thrombin generation response to Factor X blocking by rivaroxaban; type: biochemical; conditions: dose dependent blocking of Factor X
# T1 construct: tissue Octophrama (so in the source); host or cells: Octaplas plasma mixed with FPH
# T1 sequence (P00742 235-488 limits assumed): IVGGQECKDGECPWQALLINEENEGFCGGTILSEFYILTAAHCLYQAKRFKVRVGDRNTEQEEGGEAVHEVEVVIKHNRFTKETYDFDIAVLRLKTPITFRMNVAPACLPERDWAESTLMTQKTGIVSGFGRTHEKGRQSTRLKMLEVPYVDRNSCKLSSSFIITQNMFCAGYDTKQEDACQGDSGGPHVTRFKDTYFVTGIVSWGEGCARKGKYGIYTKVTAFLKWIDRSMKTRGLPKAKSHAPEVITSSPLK
# T1 sequence (P00742 41-179 limits assumed): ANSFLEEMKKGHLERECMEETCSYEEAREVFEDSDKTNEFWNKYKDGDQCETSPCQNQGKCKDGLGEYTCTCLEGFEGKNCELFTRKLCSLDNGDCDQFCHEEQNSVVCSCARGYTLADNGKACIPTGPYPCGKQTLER
# Protocol: Rivaroxaban (Cayman Chemical, caymanchem.com) was diluted in TGA dilution buffer to 0 μg/ml, […], 350 ng/ml, and 70 ng/ml. 60 mM GPRP (BACHEM, bachem.com), thrombin (Sigma Aldrich, sigmaaldrich.com) and Octoplas (Octophrama, octopharma.com) were thawed according to manufacturer's guidelines. CLARIOstarPlus was used to perform TGA. A master mix of Octaplas, PRP reagent (Diagnostica Stago, Cat. No. 86196), and GPRP was prepared in a ratio of 68:15:5, respectively. Flu substrate and Fluo-buffer were combined according to manufacturer's guidelines to create FluCa (Diagnostica Stago, stago.com). Master mix and FluCa solution were placed in the 37° C. air incubator with agitation for 45±5 minutes. […] 10 μl of each sample was dispensed into selected wells of a 96-well plate (Corning, corning.com) by reverse pipetting. TGA dilution buffer for thrombin was used in the thrombin standard ladder. […] CLARIOstarPlus injectors 1 and 2 were primed with master mix and FluCa solution with 250 μl, then the injector was placed in the active position. The CLARIOstarPlus TGA program was loaded with parameters for TGA assay with injectors set to add 90 μl of master mix and 40 μl of FluCa solution to each well. Plate was inserted to be read.
# GpIIbIIa receptor = target: T2, GpIIbIIa receptor (Homo sapiens, UniProt P05106+P08514); assay: Mixed aggregation of washed FPH with washed platelets with and without RGDS; type: cell-based; conditions: 1 mM RGDS
# T2 construct: endogenous in cells; host or cells: FPH (freeze-dried human platelet derivatives); in A8 also washed platelets from healthy donors
# Protocol: For one of the replicates of each, RGDS was added to achieve a 1 mM concentration. […] The mixture was prepared immediately prior to running on the PAP-8E Platelet Aggregometer. PAP-8E was turned on and samples were incubated with stirring for 10 minutes at 37° C. and HMTA was used as a control for collagen agonist used in aggregation. Stir bars were added to cuvettes and 225 μl of sample was added to cuvettes by reverse pipetting and inserted into channels. Cuvettes were then transferred from warming wells to the testing wells. Run was started for each channel with 10 seconds in between. 25 μl of collagen (Helena Biosciences, helenabiosciences.com) was added to appropriate cuvettes when the timer for the channel reached 8:00 minutes. HMTA was added in place of the agonist to the first channel as a control. After measurement was completed for collagen agonist, each sample was transferred to a microcentrifuge tube and AcT count was taken.
# [2] = tested on: FPH aggregation (GpIIbIIIa); conditions: 5 mM MgCl2, FPH 250 k/μL, tirofiban present
# Protocol: A master mix of FPH or APU was prepared by combining cells dosed at 250 k/μL with HMTA to arrive at enough volume to fill 225 μl of sample into 8 cuvettes, plus extra buffer volume if necessary. 225 μl of master mix was transferred to cuvettes as specified along with a magnetic stir bar in each cuvette. […] The groups tested were as follows. (+) indicates the presence while (−) indicates the absence of the specified reagent: • 0.32 mM DMSO−/5 mM Mg−/1 mM Tiro− (negative control) • 0.32 mM DMSO+/5 mM Mg−/1 mM Tiro− (negative control) • 0.32 mM DMSO−/5 mM Mg+/1 mM Tiro− (positive control) • 0.32 mM DMSO+/5 mM Mg+/1 mM Tiro− (positive control) • 0.32 mM DMSO+/5 mM Mg−/1 mM Tiro− (#of samples=2) • 0.32 mM DMSO+/5 mM Mg−/1 mM Tiro− (#of samples=2)
# [3] = tested on: FPH aggregation (surface fibrinogen); assay: MgCl2 aggregation dose response after plasmin treatment of FPH; type: cell-based, human; conditions: 0, 2, 5, 10 mM MgCl2, plasmin 1 hour
# Protocol: Both master mixes were incubated at room temperature with agitation for 1 hour. […] Magnetic stir bars were placed in all the cuvettes. […] Each concentration of MgCl2 to be tested was prepared in duplicate. […] Plasmin causes the breakdown of fibrinogen.
# [4] = target: T3, fibrinogen on the surface of FPH (Homo sapiens, UniProt P02671+P02675+P02679); assay: Surface marker detection of washed FPH at different plasmin concentrations; type: cell-based; conditions: 0, 1.46, 2.92, 14.6, 29.2 nkat/ml plasmin, 1 hour
# T3 construct: endogenous in cells; host or cells: washed FPH (freeze-dried human platelet derivatives)
# T3 sequence (P02671 20-629 limits assumed): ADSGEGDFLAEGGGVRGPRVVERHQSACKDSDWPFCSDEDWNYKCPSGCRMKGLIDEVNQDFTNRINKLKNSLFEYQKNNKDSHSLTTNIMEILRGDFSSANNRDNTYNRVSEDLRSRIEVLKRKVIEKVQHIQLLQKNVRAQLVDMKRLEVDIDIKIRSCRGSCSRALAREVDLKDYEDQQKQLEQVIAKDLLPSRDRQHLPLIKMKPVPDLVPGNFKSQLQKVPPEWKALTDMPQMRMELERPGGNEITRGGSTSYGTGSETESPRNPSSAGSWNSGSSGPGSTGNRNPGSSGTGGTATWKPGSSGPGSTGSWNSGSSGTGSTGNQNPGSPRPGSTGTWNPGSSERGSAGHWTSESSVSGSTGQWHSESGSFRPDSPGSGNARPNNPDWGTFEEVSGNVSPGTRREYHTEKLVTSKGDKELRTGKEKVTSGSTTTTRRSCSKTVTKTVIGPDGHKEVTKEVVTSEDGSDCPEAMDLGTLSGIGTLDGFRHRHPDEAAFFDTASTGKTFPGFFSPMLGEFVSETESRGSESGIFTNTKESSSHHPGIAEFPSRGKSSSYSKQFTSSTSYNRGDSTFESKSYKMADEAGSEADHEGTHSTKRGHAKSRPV
# T3 sequence (P02675 31-491): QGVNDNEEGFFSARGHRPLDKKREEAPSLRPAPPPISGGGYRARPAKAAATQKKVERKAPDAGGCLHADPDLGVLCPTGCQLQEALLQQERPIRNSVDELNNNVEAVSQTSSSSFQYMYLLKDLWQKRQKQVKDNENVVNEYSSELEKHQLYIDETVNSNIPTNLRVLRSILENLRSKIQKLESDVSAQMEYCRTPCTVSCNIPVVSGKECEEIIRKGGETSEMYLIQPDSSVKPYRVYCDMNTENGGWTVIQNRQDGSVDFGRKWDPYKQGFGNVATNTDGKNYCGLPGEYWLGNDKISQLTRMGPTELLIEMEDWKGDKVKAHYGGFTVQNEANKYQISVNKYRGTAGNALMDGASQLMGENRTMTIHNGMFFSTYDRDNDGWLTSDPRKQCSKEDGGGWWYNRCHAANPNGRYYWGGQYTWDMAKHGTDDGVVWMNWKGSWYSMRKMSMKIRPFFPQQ
# T3 sequence (P02679 27-453): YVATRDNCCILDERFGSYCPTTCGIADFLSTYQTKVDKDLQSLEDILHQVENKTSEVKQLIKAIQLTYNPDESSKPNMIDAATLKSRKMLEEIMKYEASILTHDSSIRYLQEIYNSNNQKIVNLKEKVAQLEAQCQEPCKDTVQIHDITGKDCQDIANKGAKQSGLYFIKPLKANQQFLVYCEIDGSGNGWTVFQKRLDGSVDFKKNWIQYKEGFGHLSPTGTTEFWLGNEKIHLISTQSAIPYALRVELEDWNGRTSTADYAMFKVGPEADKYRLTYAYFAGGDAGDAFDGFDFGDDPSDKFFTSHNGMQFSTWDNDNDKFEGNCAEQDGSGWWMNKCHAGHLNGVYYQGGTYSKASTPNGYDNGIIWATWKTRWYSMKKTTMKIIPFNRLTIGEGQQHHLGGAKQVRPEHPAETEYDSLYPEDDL
# [5] = tested on: aggregation of washed FPH with washed platelets; assay: Mixed aggregation of washed FPH with washed platelets with and without plasmin; type: cell-based, human; conditions: plasmin-treated washed FPH mixed with WPS
# Protocol: This was repeated for optimal concentration of plasmin added based on flow results. To initiate spontaneous aggregation between the washed platelets and washed FPH the following steps were performed for the mixed samples. Stir bars were added to cuvettes, 225 μl of sample was added to the cuvettes by reverse pipetting and inserted into channels. The cuvettes were transferred from the warming wells to the testing wells. The run was started for each channel with 10 seconds in between. 25 μl of HMTA was added to all cuvettes once the timer for the channel reached 8:00 minutes. After measurements were completed, each sample was transferred to a microcentrifuge tube and AcT counts were taken.
# [6] = washed FPH and washed platelets
molecule,measurement,setting,value
O=C(O)CN(CCN(CC(=O)O)CC(=O)O)CC(=O)O [EDTA],effect on aggregation between washed FPH and washed platelets,washed platelets (WPS),prevents aggregation
same,Bound fibrinogen with addition of EDTA,[1]; washed FPH,decreases slightly
same,CD61 (GpIIIa) signal with addition of EDTA,[1]; [6],decreased slightly
same,drop in the GpIIbIIIa complex (CD41) with addition of EDTA,[1]; [6],more than half
O=C(NC[C@H]1CN(c2ccc(N3CCOCC3=O)cc2)C(=O)O1)c1ccc(Cl)s1 [Rivaroxaban],thrombin generation of FPH,FXa,decreasing thrombin generation
same,maximum peak time of thrombin generation of FPH,FXa; 1:64 dilution,increasing maximum peak time
Arg-Gly-Asp-Ser (RGDS; printed: Arg-Gly-Asp-Ser) [GpIIbIIa receptor antagonist RGDS peptide],effect on mixed aggregation of washed FPH and washed platelets,GpIIbIIa receptor,inhibited aggregation
same,fold lower platelet counts in untreated mixed sample in comparison to the treated mixed sample,GpIIbIIa receptor,> 2 fold
CCCCS(=O)(=O)N[C@@H](Cc1ccc(OCCCCC2CCNCC2)cc1)C(=O)O [tirofiban],effect on divalent cation induced aggregation of FPH,[2],abrogated
B1,FPH aggregation response to MgCl2 after plasmin treatment,[3],no dose dependent response
same,effect on fibrinogen on the surface of FPH,[4],degrades fibrinogen on the surface of FPH
same,effect on aggregation of washed FPH with washed platelets,[5],inhibits the aggregation

# From US20240307453A1, “METHODS FOR CONTROLLING BLEEDING IN A SUBJECT AFFLICTED WITH HERMANSKY PUDLAK SYNDROME USING PLATELET DERIVATIVE COMPOSITIONS” (Cellphire, Inc., priority 2023, published 2024)
